Assay results taken from ChEMBL document CHEMBL2434943, “Elaboration of thorough simplified vinca alkaloids as antimitotic agents based on pharmacophore similarity” (Eur J Med Chem, 2013).
Calls of active or inactive are those of the source. The calls are words filed in the database; no cut-off is given here.

Experiments:
HepG2 [1] = assay: Antimitotic activity in human HepG2 cells assessed as cell morphological changes at 5 uM after 3 to 12 hrs by DAPI staining-based laser scanning confocal microscopic analysis; format: functional
Tubulin (Homo sapiens) = Tubulin (Homo sapiens) (UniProt P68371+Q9H4B7+P0DPH7+P68366+Q13509+Q71U36+P04350+Q3ZCM7+P07437+P68363+Q9BQE3+Q6PEY2+Q13885+Q9BVA1+Q9BUF5); assay: Inhibition of tubulin polymerization (unknown origin) at 3 to 10 uM after 90 mins; format: protein-complex assay
HepG2 [2] = assay: Antimitotic activity in human HepG2 cells assessed as disruption of microtubule network at 5 uM by DAPI staining-based laser scanning confocal microscopic analysis; format: functional, cell-based; details: TDE = time-dependent effect
MCF7 [3] = assay: Cell cycle arrest in human MCF7 cells assessed as accumulation at G2/M phase at 5 uM after 36 hrs by propidium iodide staining-based flow cytometric analysis (reference value: 19%); format: functional
MCF7 [4] = assay: Cell cycle arrest in human MCF7 cells assessed as accumulation at S phase at 5 uM after 36 hrs by propidium iodide staining-based flow cytometric analysis (reference value: 12.5%); format: functional
MCF7 [5] = assay: Cell cycle arrest in human MCF7 cells assessed as accumulation at G0/G1 phase at 5 uM after 36 hrs by propidium iodide staining-based flow cytometric analysis (reference value: 67.3%); format: functional
MCF7 [6] = assay: Cell cycle arrest in human MCF7 cells assessed as accumulation at subG1 phase at 5 uM after 36 hrs by propidium iodide staining-based flow cytometric analysis (reference value: 1.2%); format: functional
MCF7 [7] = assay: Cell cycle arrest in human MCF7 cells assessed as accumulation at G2/M phase at 3 uM after 36 hrs by propidium iodide staining-based flow cytometric analysis (reference value: 19%); format: functional
MCF7 [8] = assay: Cell cycle arrest in human MCF7 cells assessed as accumulation at S phase at 3 uM after 36 hrs by propidium iodide staining-based flow cytometric analysis (reference value: 12.5%); format: functional
MCF7 [9] = assay: Cell cycle arrest in human MCF7 cells assessed as accumulation at G0/G1 phase at 3 uM after 36 hrs by propidium iodide staining-based flow cytometric analysis (reference value: 67.3%); format: functional
MCF7 [10] = assay: Cell cycle arrest in human MCF7 cells assessed as accumulation at subG1 phase at 3 uM after 36 hrs by propidium iodide staining-based flow cytometric analysis (reference value: 1.2%); format: functional
MCF7 [11] = assay: Cell cycle arrest in human MCF7 cells assessed as accumulation at G2/M phase at 1 uM after 36 hrs by propidium iodide staining-based flow cytometric analysis (reference value: 19%); format: functional
MCF7 [12] = assay: Cell cycle arrest in human MCF7 cells assessed as accumulation at S phase at 1 uM after 36 hrs by propidium iodide staining-based flow cytometric analysis (reference value: 12.5%); format: functional
MCF7 [13] = assay: Cell cycle arrest in human MCF7 cells assessed as accumulation at G0/G1 phase at 1 uM after 36 hrs by propidium iodide staining-based flow cytometric analysis (reference value: 67.3%); format: functional
MCF7 [14] = assay: Cell cycle arrest in human MCF7 cells assessed as accumulation at subG1 phase at 1 uM after 36 hrs by propidium iodide staining-based flow cytometric analysis (reference value: 1.2%); format: functional
HepG2 [15] = assay: Cell cycle arrest in human HepG2 cells assessed as accumulation at G2/M phase at 10 uM after 48 hrs by propidium iodide staining-based flow cytometric analysis (reference value: 22.4%); format: functional
HepG2 [16] = assay: Cell cycle arrest in human HepG2 cells assessed as accumulation at S phase at 10 uM after 48 hrs by propidium iodide staining-based flow cytometric analysis (reference value: 10.5%); format: functional
HepG2 [17] = assay: Cell cycle arrest in human HepG2 cells assessed as accumulation at G0/G1 phase at 10 uM after 48 hrs by propidium iodide staining-based flow cytometric analysis (reference value: 65.9%); format: functional
HepG2 [18] = assay: Cell cycle arrest in human HepG2 cells assessed as accumulation at subG1 phase at 10 uM after 48 hrs by propidium iodide staining-based flow cytometric analysis (reference value: 1.2%); format: functional
HepG2 [19] = assay: Cell cycle arrest in human HepG2 cells assessed as accumulation at G2/M phase at 5 uM after 48 hrs by propidium iodide staining-based flow cytometric analysis (reference value: 22.4%); format: functional
HepG2 [20] = assay: Cell cycle arrest in human HepG2 cells assessed as accumulation at S phase at 5 uM after 48 hrs by propidium iodide staining-based flow cytometric analysis (reference value: 10.5%); format: functional
HepG2 [21] = assay: Cell cycle arrest in human HepG2 cells assessed as accumulation at G0/G1 phase at 5 uM after 48 hrs by propidium iodide staining-based flow cytometric analysis (reference value: 65.9%); format: functional
HepG2 [22] = assay: Cell cycle arrest in human HepG2 cells assessed as accumulation at subG1 phase at 5 uM after 48 hrs by propidium iodide staining-based flow cytometric analysis (reference value: 1.2%); format: functional
HepG2 [23] = assay: Cell cycle arrest in human HepG2 cells assessed as accumulation at G2/M phase at 3 uM after 48 hrs by propidium iodide staining-based flow cytometric analysis (reference value: 22.4%); format: functional
HepG2 [24] = assay: Cell cycle arrest in human HepG2 cells assessed as accumulation at S phase at 3 uM after 48 hrs by propidium iodide staining-based flow cytometric analysis (reference value: 10.5%); format: functional
HepG2 [25] = assay: Cell cycle arrest in human HepG2 cells assessed as accumulation at G0/G1 phase at 3 uM after 48 hrs by propidium iodide staining-based flow cytometric analysis (reference value: 65.9%); format: functional
HepG2 [26] = assay: Cell cycle arrest in human HepG2 cells assessed as accumulation at subG1 phase at 3 uM after 48 hrs by propidium iodide staining-based flow cytometric analysis (reference value: 1.2%); format: functional
[27] = Cytotoxicity against KM mouse splenic lymphocytes assessed as growth inhibition after 72 hrs by MTT assay; details: Splenic lymphocyte
HepG2 [28] = assay: Cytotoxicity against adriamycin-resistant human HepG2 cells assessed as growth inhibition after 72 hrs by MTT assay; format: functional, cell-based; details: HepG2, 72 h
HepG2 [29] = assay: Cytotoxicity against human HepG2 cells assessed as growth inhibition after 72 hrs by MTT assay; format: functional, cell-based; details: HepG2, 72 h
K562 = assay: Cytotoxicity against human K562 cells assessed as growth inhibition after 72 hrs by MTT assay; format: functional, cell-based; details: K562, 72 h
MDA-MB-231 = assay: Cytotoxicity against human MDA-MB-231 cells assessed as growth inhibition after 72 hrs by MTT assay; format: functional, cell-based; details: MDA-MB-231, 72 h
MCF7 [30] = assay: Cytotoxicity against human MCF7 cells assessed as growth inhibition after 72 hrs by MTT assay; format: functional, cell-based; details: MCF7, 72 h

inhibition (Tubulin (Homo sapiens)): Active
SMILES: CC1(C)C(/C=C/c2cccc([N+](=O)[O-])c2)=Nc2ccccc21
Activity (HepG2 [1]): Active
Activity (HepG2 [2]): tde
Activity (MCF7 [3]): 46.7%
Activity (MCF7 [4]): 12.3%
Activity (MCF7 [5]): 19.6%
Activity (MCF7 [6]): 21.4%
Activity (MCF7 [7]): 39.7%
Activity (MCF7 [8]): 10%
Activity (MCF7 [9]): 40.6%
Activity (MCF7 [10]): 9.7%
Activity (MCF7 [11]): 28%
Activity (MCF7 [12]): 14%
Activity (MCF7 [13]): 56.8%
Activity (MCF7 [14]): 1.2%
Activity (HepG2 [15]): 52.1%
Activity (HepG2 [16]): 8.6%
Activity (HepG2 [17]): 36.8%
Activity (HepG2 [18]): 2.5%
Activity (HepG2 [19]): 71.3%
Activity (HepG2 [20]): 9.9%
Activity (HepG2 [21]): 15.3%
Activity (HepG2 [22]): 3.5%
Activity (HepG2 [23]): 37.6%
Activity (HepG2 [24]): 8.2%
Activity (HepG2 [25]): 51.3%
Activity (HepG2 [26]): 2.9%
IC50 [27]: 18.8 µM
IC50 (HepG2 [28]): 2.27 µM
IC50 (HepG2 [29]): 5.04 µM
IC50 (K562): 4.38 µM
IC50 (MDA-MB-231): 1.87 µM
IC50 (MCF7 [30]): 0.89 µM
